Test results: article PMC8318231, “Rate-of-Kill (RoK) assays to triage large compound sets for Chagas disease drug discovery: Application to GSK Chagas Box” (PLoS Neglected Tropical Diseases, 2021)
Read-outs that look alike come from different tables or passages of the source.

Columns and labels:
[1] = system: T. cruzi Tulahuen trypomastigotes; assay: T. cruzi trypomastigote assay (Cell Titer-Glo viability, ATP luminescence); assay type: cell-based, Trypanosoma cruzi; conditions: for Trypomastigotes pIC50 48 hours: 48 hours incubation; for Trypomastigotes pIC50 48 hours / Trypomastigotes pIC50 72 hours: pIC50 = -log10 IC50 in molar units; for Trypomastigotes pIC50 72 hours: 72 hours incubation; for 72 pIC50 (trypomastigotes, raw data of Fig 1D): plotted values, censored values given without sign; for 48 pIC50 / 72 pIC50: trypomastigote assay; for IC50: Trypanosoma cruzi, TULAHUEN
Method in brief: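 Compounds were tested in dose response or once at a final 5 μM against 5 × 10^4 trypomastigotes per well (DMEM, 2% FBS), collected on days 5–8 from LLC-MK2 infected cultures. ATP luminescence via CellTiter-Glo reports live parasites; DMSO defines 0% and cell-free wells 100% effect.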

[2] = system: H9c2 (rat cardiomyocytes); assay: RoK assay, number of host cells nuclei (drug-related cytotoxicity, H9c2 output, Cmin_Tox); conditions: H9c2 host cells
Procedure: For this high-content intracellular imaging assay, H9c2 cells were seeded in 225 cm^2 T- FLASK in DMEM with 10% FBS for 4 h to allow attachment. T. cruzi trypomastigotes, collected at days 5 to 8 after infection from LLC-MK2 parasite infected cultures, were allowed to swim out for 4 h at 37°C from a centrifuged pellet (1,600 x g / 10 min). Trypomastigotes were then collected and counted in a CASY Cell Counter using the 60 μm capillary. […] Cells were washed once with PBS before incubation of the infected H9c2 monolayer with trypsin (Life-Technologies) to detach cells from the flask. Cells were counted in a CASY Cell Counter, using the 150 μm capillary, and their density set at 5 x 10^4 cells/mL in supplemented DMEM. Infected H9c2 were dispensed into 384-well plates at 50 μL per well using a Multidrop Combi dispenser. Control wells used to determine a 100% parasitic growth (full 6th column of each plate) were left untreated, whereas not infected cells were added in the control wells used as 0% parasite growth (or 100% parasite growth inhibition; full 18th column of each plate). The four plates corresponding to each RoK assay were predispensed for the same mother plate. […] Cultures were then fixed and stained with 50 μL per well of a PBS solution containing 4% formaldehyde and 2 μM DRAQ5 DNA dye (BioStatus, UK). Then plates were read in a PerkinElmer Opera Phenix using a 20x objective, 3 fields per well. DRAQ5 signal was detected using 640 nm excitation laser and a 690/50 nm emission detection filter. Automated image analysis was performed with a script developed on Acapella High Content Imaging and Analysis Software (PerkinElmer). Two outputs were provided for each sample well: (1) number of host cells nuclei to determine drug-related cytotoxicity (aka H9c2) and (2) number of amastigotes per cell as infection level measurement (aka AM/CELL). Each output is plotted as a time course for each compound at every concentration. This assay was adapted from Alonso-Padilla et al. and Peña et al..
• ME (Maximum Effect) is the maximum percentage of parasite burden reduction reached by any compound concentration. Compounds that decrease the initial parasite load will show a positive value of ME, whereas compounds that allow the progression of infection will render a negative ME value. […] It is calculated for the MCC50 (t50%_MCC50) and for the maximum concentration (t50%_Cmax). […] The value of this parameter is not either interpolated or extrapolated, and it refers to the first experimental time-course point at which a 50% of effect is reached or exceeded. • tlag defines the time elapsed for one particular concentration to reduce parasite burden between two consecutive points at any moment of the time course. It is calculated for the MCC50 (tlag_MCC50) and for the maximum concentration (tlag_Cmax). The value of this parameter is not either interpolated or extrapolated, and it refers to the first experimental time-course point of a positive slope in the normalised plot (i.e. %Cidal_Response). • Cmin_Tox (Minimal CytoToxic Concentration) is the lowest compound concentration that is reducing the number of host mammalian cells below 50% of initial cell density. Cytotoxic compounds may mislead a bona fide antiparasitic action. Therefore, this descriptor is used to flag this kind of compounds and warn about the genuine meaning of the rest of descriptors.

TcCYP51 = conditions: formerly reported; cited from earlier work

Compound	Trypomastigotes pIC50 48 hours [1]	Trypomastigotes pIC50 72 hours [1]	72 pIC50 (trypomastigotes, raw data of Fig 1D) ([1]; 72 hours)	48 pIC50 ([1]; 48 h, figure 1A)	72 pIC50 ([1]; 72 h, figure 1A)	72 pIC50 ([1]; 72 h, figure 1B)	Cmin_Tox [2]	CYP51 pIC50 (TcCYP51)	activity versus trypomastigotes at 48 hours (in words) ([1]; 48 hours)	activity versus trypomastigotes at 72 hours (in words) ([1]; 72 hours)	IC50 ([1]; 48 h, read-out: Trypomastigotes pIC50 48 hours (converted))	IC50 ([1]; 72 h, read-out: Trypomastigotes pIC50 72 hours (converted))
O=C1CSC(c2cccnc2)N1c1ccc(Cl)cc1Cl (stereo not shown) [TCMDC-143114]	< 4.3	< 4.3	< 4.3	< 4.3	< 4.3	< 4.3	>50 µM	6.8	–	–	–	–
N#Cc1cc(N2CCCC2=O)ccc1Sc1ccccc1CO [TCMDC-143604]	< 4.3	< 4.3	< 4.3	< 4.3	< 4.3	< 4.3	>50 µM	4.7	–	–	–	–
Cn1cncc1CN1CCC2(CC1)COC(Cc1ccccc1)C2 (stereo not shown) [TCMDC-143502]	< 4.3	< 4.3	< 4.3	< 4.3	< 4.3	< 4.3	>50 µM	6	–	–	–	–
Cc1ccc(C)c(OC2CCN(C(=O)C(C)n3ccnc3)CC2)c1 (stereo not shown) [TCMDC-143481]	< 4.3	< 4.3	< 4.3	< 4.3	< 4.3	< 4.3	>50 µM	7	–	–	–	–
O=c1[nH]cnc2c([C@@H]3O[C@H](CO)[C@@H](O)[C@H]3O)n[nH]c12 [TCMDC-143083, Formycin B]	–	–	–	–	–	–	>50 µM	< 4	inactive	active	> 50100 nM	2510 nM
O=C(c1cccc(Cl)c1Cl)N1CCn2c1nc(-c1ccncc1)cc2=O [TCMDC-143409]	< 4.3	< 4.3	< 4.3	< 4.3	< 4.3	< 4.3	>50 µM	7.2	–	–	–	–
O=C(Nc1ccc(Br)c(Cl)c1)Nc1ccc2c(c1)OCO2 [TCMDC-143588]	5.5	< 4.3	–	–	–	–	>50 µM	< 4	–	–	–	–
Cc1[nH]c2ccccc2c(=O)c1Cc1c(C)[nH]c2ccccc2c1=O [TCMDC-143490]	5.7	4.8	–	–	–	–	>50 µM	< 4	–	–	–	–
CCCCn1nnnc1CSc1nc(C)cc(C)c1C#N [TCMDC-143315]	6.6	6.8	–	–	–	–	>50 µM	4.3	–	–	–	–
CNc1c(C(N)=O)c(-c2ccc3scnc3c2)nn1CC(F)(F)F.O=C(O)C(F)(F)F [TCMDC-143463]	< 4.3	< 4.3	< 4.3	< 4.3	< 4.3	< 4.3	>50 µM	< 4	–	–	–	–
CCN(Cc1ccncc1)Cc1ccc(NC(=O)c2cc(-c3ccc(F)cc3)n[nH]2)cc1 [TCMDC-143433]	4.9	4.5	–	–	–	–	>50 µM	7.1	–	–	–	–
